Laboratory results reported in patent US8207143B2, “Methods of treating cancer and other conditions or disease states using LFMAU and LDT” (Yale University, priority 2005, dated 2012).

Experiments:
[1] = system: colon 38 mouse tumor; experiment: Experiment 7: LDT and LFMAU alone and with 5-Fluorouracil/leucovorin on colon 38 in immuno-competent mice; format: in vivo; settings: LDT 100 mg/kg
Method: This tumor is passed from a solid tumor growing in mice. Several grams (assuming a gram per ml) are pressed through a sterile screen and suspended in a tissue culture media without phenol red or fetal calf serum (a balanced salt solution) at 2 ml/gram of tumor. Then 0.1 ml of this tumor suspension is implanted into the flank of the mouse. Ten days to two weeks after implantation (when the tumors could be measured with a caliper), unless otherwise indicated, the drug therapy was initiated.
In general, drugs are delivered at a rate of 0.1 ml per 10 grams of body weight. Every day the mice are weighed to deter the amount to be injected and as a index of toxicity.
The Tumor Volume is calculated from the measurements by the formula: length (mm)×width (mm)×width (mm)×II/6 (as a % of Day 1).
This experiment was designed to determine the effect of LDT and LFMAU alone and in combination with 5-Fluorouracil with leucovorin rescue on the growth of mouse tumor (colon 38) in immuno-competent mice. The drugs were administered to the mice according to the following schedule:
5FU/LV—150 mg/kg each i.p. once on day one
LDT—100 mg/kg p.o. b.i.d. for 5 days
LFMAU—50 mg/kg p.o. bid for 5 days
Combination groups received both treatments as per above schedules.

[2] = system: colon 38; experiment: Experiment 8: LDT and LFMAU enhancement of oxaliplatin on colon 38 growth in C57BL6 female mice; format: in vivo, mouse
Method: This tumor is passed from a solid tumor growing in mice. Several grams (assuming a gram per ml) are pressed through a sterile screen and suspended in a tissue culture media without phenol red or fetal calf serum (a balanced salt solution) at 2 ml/gram of tumor. Then 0.1 ml of this tumor suspension is implanted into the flank of the mouse. Ten days to two weeks after implantation (when the tumors could be measured with a caliper), unless otherwise indicated, the drug therapy was initiated. In general, drugs are delivered at a rate of 0.1 ml per 10 grams of body weight. Every day the mice are weighed to deter the amount to be injected and as a index of toxicity. The Tumor Volume is calculated from the measurements by the formula: length (mm)×width (mm)×width (mm)×II/6 (as a % of Day 1). Experiment 8 tested the effects of LDT (L-dT) and LFMAU (15 mg/kg of each, same schedule as above) on the enhancement of anti-cancer drug effect (oxaliplatin 10 mg/kg i.p., once on day 1) on colon 38 growth in C57BL6 female mice.

[3] = system: HepG2; experiment: Experiment 9: LDT enhancement of oxaliplatin on HepG2 in NCR Nu/Nu male mice; format: in vivo, human
Method: This is a human hepatocarcinoma that is grown in tissue culture as a monolayer in MEM with 10% FBS. Several flasks of cells are grown, then harvested with pancreatin and resuspended in a balanced salt solution at 10^8 per ml the 0.1 ml of this suspension is implanted into the flank of a NCR nude mouse (T cell deficient to grow human tissues). Then approximately 10 days later, when the tumor was measurable, the drug treatment started. In general, drugs are delivered at a rate of 0.1 ml per 10 grams of body weight. Every day the mice are weighed to deter the amount to be injected and as a index of toxicity. The Tumor Volume is calculated from the measurements by the formula: length (mm)×width (mm)×width (mm)×II/6 (as a % of Day 1). Experiment 9 tested the effects of LDT (15 mg/kg, same schedule as above) on the enhancement of anti-cancer drug effect (oxaliplatin 10 mg/kg i.p., once on day 1) on HepG2in immunodeficient NCR Nu/Nu male mice.

[4] = system: B16 melanoma; experiment: Experiment 6: B16 melanoma injected subcutaneously into C57 BL6 mice; format: in vivo, mouse; settings: B16 melanoma s.c. in C57 BL6 mice; LFMAU 50 mg/kg B.I.D., 5 days pretreatment then ten days; Controls 831±474.5
Method: These experiments includes B16 melanoma which was injected subcutaneously into C57 BL6 mice which were pretreated for 5 days with LFMAU (B.I.D.) and then subsequently for ten days with LFMAU (BID.) at 50 mg/kg. with no other anti-cancer compound. This experiment yielded tumor size S.D. for the Controls of 831±474.5 and for the LFMAU treated mice of 160±150.3.

[5] = immunocompetent mice, LFMAU 50 mg/kg p.o. b.i.d. for 5 days

Compound	duration of the effect after therapy (FIG. 7) [1, 5]	effect on growth of colon 38 mouse tumor, alone (FIG. 7) [1, 5]	effect on the anti-cancer activity of 5-FU/LV (FIG. 7) ([1]; with 5FU/LV 150 mg/kg each i.p. once on day one, LFMAU 50 mg/kg p.o. b.i.d. 5 days)	enhancement of anti-tumor effect of Oxaliplatin on colon 38 (FIG. 8) ([2]; 15 mg/kg of each nucleoside, oxaliplatin 10 mg/kg i.p. once on day 1)	duration of the effect after treatment (FIG. 8) ([2]; 15 mg/kg with oxaliplatin 10 mg/kg i.p.)	effect on HepG2 tumor, alone or in combination (FIG. 9) ([3]; LDT 15 mg/kg)	duration of the effect after treatment (FIG. 9) ([3]; LDT 15 mg/kg with oxaliplatin)	enhancement of anti-tumor effect of Oxaliplatin on HepG2 (FIG. 9) ([3]; LDT 15 mg/kg, oxaliplatin 10 mg/kg i.p. once on day 1)	tumor size S.D. [4]
Cc1cn([C@@H]2C[C@@H](O)[C@H](CO)O2)c(=O)[nH]c1=O [LDT, β-L-2′-deoxyribofuranosylthymidine]	lasted well past the 5 day therapy	slows down the growth	significant (additive or synergistic)	clearly enhanced the anti-tumor effect of Oxaliplatin	lasts well after the nucleoside treatment is stopped	effective alone or in combination with oxaliplatin	lasts after the nucleoside treatment is stopped	clearly enhanced the anti-tumor effect of Oxaliplatin	
Cc1cn([C@H]2O[C@@H](CO)[C@H](O)[C@H]2F)c(=O)[nH]c1=O [LFMAU, 2′-fluoro-5-methyl-β-L-arabinofuranosyluridine]									160±150.3
